Measurements published in patent US11773132B2, “Cyclic di-nucleotides as stimulator of interferon genes modulators” (Beijing Xuanyi PharmaSciences Co., Ltd., priority 2017, dated 2023).

target: T1, Human STING (Homo sapiens, UniProt Q86WV6, G230A/H232R/R293Q/R71H); assay: THP1-Dual cell assay, IRF pathway reporter luminescence readout (QUANTI-Luc); assay type: cell-based; conditions: THP1-Dual cells, 24 h, 30 μM, Table 2
T1 construct: host or cells: THP1-Dual cells (human monocytic reporter line)
Method: STING pathway activation by the compounds described herein was measured using THP-1 dual cells. These cells are THP1 monocytes that have been modified to be reporters for the IRF pathway, which is activated by STING agonists in these cells.
THP1-Dual cells (obtained from Invivogen) are maintained in growth medium with 100 ug/ml of Zeocin and 10 ug/ml of blasticidin at 37° C., 5% CO2, the cells were passaged every 3 days by inoculating 7×10^5 cells per ml and centrifuged at 1000 rpm for 5 min. Supernatant was removed and THP-1 Dual cells were re-suspended at 5×10^5 cells/ml in fresh pre-warmed growth medium.
[…]. 50 ul of Cell suspension (about 2.5×10^4 cells per well) was added in 384-well plate, which was incubated for 24 hours at 37° C., 5% CO2. QUANTI-Luc was prepared and used following the manufacturer's instructions, 5×10^3 cells per well were seeded in 40 μl medium and incubated overnight. Luminometer was set with the following parameters: 50u of injection, end-point measurement with a 4 second start time and 0.1 second reading time. 10 ul of THP-1 Dual cell culture medium per well was added into a 96-well white (opaque) plate, luminescence was measured and calculated.

T1 sequence (Q86WV6 whole entry R71H/G230A/H232R/R293Q): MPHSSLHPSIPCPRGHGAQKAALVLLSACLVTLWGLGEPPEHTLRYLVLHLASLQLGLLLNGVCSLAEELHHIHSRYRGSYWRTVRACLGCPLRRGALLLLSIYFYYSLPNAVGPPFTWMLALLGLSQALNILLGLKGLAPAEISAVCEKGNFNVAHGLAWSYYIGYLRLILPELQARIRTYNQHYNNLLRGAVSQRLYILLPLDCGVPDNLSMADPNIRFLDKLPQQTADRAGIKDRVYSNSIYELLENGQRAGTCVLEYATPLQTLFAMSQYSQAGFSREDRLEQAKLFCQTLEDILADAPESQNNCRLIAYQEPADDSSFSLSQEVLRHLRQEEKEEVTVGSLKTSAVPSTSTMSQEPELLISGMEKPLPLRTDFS

Row | Structure (SMILES) | Readout Average | Readout n = 1 | Readout n = 2
1 | BP1(=O)OC[C@H]2O[C@@H](n3cnc4c(NCc5ccccc5)ncnc43)[C@H](OP(=O)(S)OC[C@H]3O[C@@H](n4cnc5c(NCc6ccccc6)ncnc54)[C@H](O)[C@@H]3O1)[C@@H]2O (single isomer, unassigned) [Compound D1] | 22040 | 22420 | 21660
2 | BP1(=O)OC[C@H]2O[C@@H](n3cnc4c(NCc5ccccc5)ncnc43)[C@H](OP(=O)(S)OC[C@H]3O[C@@H](n4cnc5c(NCc6ccccc6)ncnc54)[C@H](O)[C@@H]3O1)[C@@H]2O (single isomer, unassigned) [Compound D2] | 23960 | 18350 | 29570
3 | BP1(=O)OC[C@H]2O[C@@H](n3cnc4c(NCc5ccccc5)ncnc43)[C@H](OP(=O)(S)OC[C@H]3O[C@@H](n4cnc5c(NCc6ccccc6)ncnc54)[C@H](O)[C@@H]3O1)[C@@H]2O (single isomer, unassigned) [Compound D3] | 273875 | 289010 | 258740
4 | BP1(=O)OC[C@H]2O[C@@H](n3cnc4c(NCc5ccccc5)ncnc43)[C@H](OP(=O)(S)OC[C@H]3O[C@@H](n4cnc5c(NCc6ccccc6)ncnc54)[C@H](O)[C@@H]3O1)[C@@H]2O (single isomer, unassigned) [Compound D4] | 510240 | 534040 | 486440
